Measured values reported in the NIST ThermoML archive (doi:10.1021/acs.jced.7b00396).

Conditions: for mass density: 700 kPa, Gamma attenuation method; for viscosity: Capillary tube (Ostwald / Ubbelohde) method

C1C[C@@H]2[C@H]3CC[C@H](C3)[C@@H]2C1 [exo-tetrahydrodicyclopentadiene]
Conditions	mass density [kg/m3]
239.8 K, Liquid	965.9
266.2 K, Liquid	955.9
290.9 K, Liquid	945.8
307 K, Liquid	936.3
337.1 K, Liquid	917.3
368.4 K, Liquid	890
391.9 K, Liquid	877.6
428.7 K, Liquid	857.3
468.5 K, Liquid	818.7
483.8 K, Liquid	779.5
510 K, Liquid	759.3
532.4 K, Liquid	737.7
562.1 K, Liquid	646.3
603.4 K, Gas	25.5
651.6 K, Gas	22.9
682.7 K, Gas	29.4
730.2 K, Gas	19.5
744.7 K, Gas	19.7
771.9 K, Gas	26.4
803.3 K, Gas	24.4
833 K, Gas	25.4
873.3 K, Gas	24.4

Conditions	viscosity [mPa·s]
242.7 K, 690 kPa, Liquid	10.69
242.7 K, 1700 kPa, Liquid	10.73
242.7 K, 3000 kPa, Liquid	10.8
242.7 K, 6000 kPa, Liquid	10.82
262.4 K, 690 kPa, Liquid	5.78
262.4 K, 1700 kPa, Liquid	5.82
262.5 K, 3000 kPa, Liquid	5.828
262.5 K, 6000 kPa, Liquid	5.888
303.1 K, 3000 kPa, Liquid	2.49
303.1 K, 6000 kPa, Liquid	2.498
303.2 K, 690 kPa, Liquid	2.479
303.2 K, 1700 kPa, Liquid	2.483
313.1 K, 690 kPa, Liquid	1.996
313.2 K, 1700 kPa, Liquid	2.026
313.2 K, 3000 kPa, Liquid	2.146
313.2 K, 6000 kPa, Liquid	2.186
333.1 K, 3000 kPa, Liquid	1.709
333.1 K, 6000 kPa, Liquid	1.758
333.2 K, 690 kPa, Liquid	1.68
333.2 K, 1700 kPa, Liquid	1.701
353.1 K, 690 kPa, Liquid	1.142
353.1 K, 3000 kPa, Liquid	1.234
353.1 K, 6000 kPa, Liquid	1.268
353.2 K, 1700 kPa, Liquid	1.165
373.1 K, 690 kPa, Liquid	0.8868
373.1 K, 1700 kPa, Liquid	0.9068
373.2 K, 3000 kPa, Liquid	0.9467
373.2 K, 6000 kPa, Liquid	0.9789
393 K, 3000 kPa, Liquid	0.7365
393.1 K, 1700 kPa, Liquid	0.7265
393.2 K, 690 kPa, Liquid	0.7065
393.4 K, 6000 kPa, Liquid	0.7661
412.9 K, 3000 kPa, Liquid	0.5811
413.1 K, 1700 kPa, Liquid	0.5518
413.1 K, 6000 kPa, Liquid	0.6028
413.2 K, 690 kPa, Liquid	0.5267
433.1 K, 1700 kPa, Liquid	0.4372
433.1 K, 3000 kPa, Liquid	0.4776
433.2 K, 690 kPa, Liquid	0.4172
433.2 K, 6000 kPa, Liquid	0.4992
453.1 K, 690 kPa, Liquid	0.3605
453.1 K, 1700 kPa, Liquid	0.4005
453.1 K, 6000 kPa, Liquid	0.4321
453.2 K, 3000 kPa, Liquid	0.3903
473.1 K, 6000 kPa, Liquid	0.3675
473.2 K, 690 kPa, Liquid	0.3123
473.2 K, 1700 kPa, Liquid	0.3003
473.2 K, 3000 kPa, Liquid	0.3204
493.1 K, 6000 kPa, Liquid	0.3055
493.2 K, 690 kPa, Liquid	0.2255
493.2 K, 1700 kPa, Liquid	0.2552
493.2 K, 3000 kPa, Liquid	0.2752
513.1 K, 6000 kPa, Liquid	0.2964
513.2 K, 690 kPa, Liquid	0.2054
513.2 K, 1700 kPa, Liquid	0.2204
513.2 K, 3000 kPa, Liquid	0.2264
533.2 K, 690 kPa, Liquid	0.1602
533.2 K, 1700 kPa, Liquid	0.1809
533.4 K, 3000 kPa, Liquid	0.1837
533.4 K, 6000 kPa, Liquid	0.2139
552.9 K, 690 kPa, Liquid	0.1309
552.9 K, 1700 kPa, Liquid	0.1509
553.3 K, 6000 kPa, Liquid	0.1899
553.5 K, 3000 kPa, Liquid	0.1502
573.3 K, 6000 kPa, Liquid	0.1554
573.4 K, 690 kPa, Gas	0.0304
573.4 K, 1700 kPa, Liquid	0.1254
573.4 K, 3000 kPa, Liquid	0.1354
593.2 K, 690 kPa, Gas	0.0324
593.2 K, 1700 kPa, Gas	0.0394
593.2 K, 6000 kPa, Liquid	0.1453
593.3 K, 3000 kPa, Gas	0.1154
613 K, 3000 kPa, Gas	0.1016
613.4 K, 6000 kPa, Liquid	0.1316
613.6 K, 690 kPa, Gas	0.0288
613.6 K, 1700 kPa, Gas	0.0389
633.3 K, 3000 kPa, Gas	0.0977
633.3 K, 6000 kPa, Liquid	0.1177
633.4 K, 690 kPa, Gas	0.0338
633.4 K, 1700 kPa, Gas	0.0371
653.3 K, 690 kPa, Gas	0.0277
653.3 K, 1700 kPa, Gas	0.0328
653.4 K, 3000 kPa, Gas	0.0898
653.5 K, 6000 kPa, Liquid	0.0991
672.3 K, 3000 kPa, Gas	0.0804
673.2 K, 6000 kPa, Liquid	0.0956
673.3 K, 690 kPa, Gas	0.0265
673.3 K, 1700 kPa, Gas	0.0302
692.5 K, 690 kPa, Gas	0.0311
692.5 K, 1700 kPa, Gas	0.0321
692.5 K, 3000 kPa, Gas	0.0768
692.5 K, 6000 kPa, Liquid	0.0927
713.8 K, 690 kPa, Gas	0.0276
713.8 K, 1700 kPa, Gas	0.0294
713.8 K, 3000 kPa, Gas	0.0689
713.8 K, 6000 kPa, Gas	0.0889
734 K, 690 kPa, Gas	0.0303
734 K, 1700 kPa, Gas	0.0324
734 K, 3000 kPa, Gas	0.0645
734 K, 6000 kPa, Gas	0.0844
753.3 K, 690 kPa, Gas	0.0324
753.3 K, 1700 kPa, Gas	0.0352
753.3 K, 3000 kPa, Gas	0.0628
753.3 K, 6000 kPa, Gas	0.0828
